# Data published in patent publication US10308592B2 (priority 2014, dated 2019).
# Where two headings read alike, the source gives them in different places.
# Legend:
# rat [1] = conditions: in vivo
# rat [2] = conditions: in vivo; cited from earlier work
# [3] = male, Sprague-Dawley, rat
# male Sprague-Dawley rats = conditions: rat, in vivo
# in vivo = conditions: rat, po, 300 mg/kg
# rats = conditions: rat, in vivo, po, 300 mg/kg
# mouse [4] = conditions: in vivo, inhaled or intranasal
# mouse [5] = conditions: in vivo; cited from earlier work
compound,measurement,setting,value
"COC(F)(F)C(F)C(F)(F)F (centres unmarked) [301-monohydride, CF3CFHCF2OCH3]",LC50 (LD50) data - inhalation,rat [1],"LC50 >10,000 ppm"
same,NOAEL/NOEL data: NOAEL by inference,rat [1]; inhaled or intranasal,"<10,000 ppm (rat"
"FC(F)C(F)(F)OCC(F)(F)F [AE-3000, CF3CH2OCF2CF2H]",LC50 (LD50) data - inhalation,rat [2],LC50 3010 ppm
"COC(F)(F)C(F)N1C(F)(F)C(F)(F)OC(F)(F)C1(F)F (centres unmarked) [Example 1, 2,2,3,3,5,5,6,6-octafluoro-4-(1,2,2-trifluoro-2-methoxy-ethyl)morpholine]",Acute Vapor Hazard Ratio,[3],4
same,chromatographic logP,physchem,4.46
same,LC50 (LD50) data - inhalation,"male Sprague-Dawley rats; male, Sprague-Dawley",LC50 >5000 ppm
same,4 hour LC-50,male Sprague-Dawley rats,> 5000 ppm (v/v)
same,"Clinical observations, body or organ weight effects",male Sprague-Dawley rats,no significant clinical observations or body or organ weight effects were noted
same,Survival and appearance during 14 day post dose recovery period,male Sprague-Dawley rats,All animals survived and appeared normal
same,NOAEL (No Observable Adverse Effect Level),male Sprague-Dawley rats; inhaled or intranasal,> 5000 ppm (v/v)
same,NOAEL/NOEL data: NOEL,male Sprague-Dawley rats; inhaled or intranasal,NOEL >5000 ppm
"FC(F)C(F)(F)COC(F)(F)C(F)N1C(F)(F)C(F)(F)OC(F)(F)C1(F)F (centres unmarked) [Example 2, 2,2,3,3,5,5,6,6-octafluoro-4-[1,2,2-trifluoro-2-(2,2,3,3-tetrafluoropropoxy)ethyl]morpholine]",LD50,in vivo,> 300 mg/kg
same,Adverse clinical observations during post dose recovery period,rats,No adverse clinical observations were noted
same,Necropsy results,rats,normal for all animals
"CC(OC(F)(F)C(F)C(F)(F)F)C(F)(F)C(F)C(F)(F)F (centres unmarked) [Novec 7600, CF3CFHCF2CH(CH3)OCF2CFHCF3]",NOAEL/NOEL data: NOEL,rat [1]; inhaled or intranasal,29d) <500 ppm
"COC(F)(F)C(C(F)(F)F)C(F)(F)F [OIME, (CF3)2CHCF2OCH3]",NOAEL/NOEL data: NOAEL by inference,mouse [4],"<660 ppm (mouse,"
same,LC50 (LD50) data - inhalation,mouse [5],LC50 660 ppm
